Measured values from patent EP0569598A1, “BENZOXAZINONE DERIVATIVE” (JAPAN TOBACCO INC., priority 1991, dated 1993).

Tests used:
Type in all cases: biochemical
[1] = biological target: T1, bovine pancreatic trypsin (TRY) (Bos taurus, UniProt P00760); experiment: TRY inhibitory activity (synthetic substrate, pNA release); conditions: pH 7.5; TRY 25 nM, substrate Z-Arg-pNA 1.0 mM; read-out: IC₅₀ value TRY
T1 construct: bovine pancreatic trypsin (TRY); purchased Sigma Inc
T1 sequence (P00760 24-246): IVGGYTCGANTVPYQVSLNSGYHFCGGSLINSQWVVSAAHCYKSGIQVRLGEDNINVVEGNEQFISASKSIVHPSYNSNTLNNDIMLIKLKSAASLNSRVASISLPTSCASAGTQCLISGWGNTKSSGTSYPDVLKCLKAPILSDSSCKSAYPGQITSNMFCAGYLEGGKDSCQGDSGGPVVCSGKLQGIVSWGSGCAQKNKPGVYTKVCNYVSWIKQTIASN
Method: (§1) Activities of the Benzoxazine derivatives of the present invention against human leukocyte elastase (HLE), human sputum elastase (HSE), human cathepsin G (HCG), bovine pancreatic α-chmotrypsin (CYT) and bovine pancreatic trypsin (TRY) were measured by the following method.
A test compound was dissolved in DMSO (for fluorometry) and prepared various concentration of the solution. To each concentration was added 2-fold volume of 0.2M Tris-HCl (pH8.6), thereby obtaining a test solution. Synthetic substrate (Funakoshi, L-1335) was dissolved in DMSO and 2-volume of 0.2M Tris-HCl (pH8.6) was added thereto, thereby obtaining a substrate solution. The reaction was performed using a microplate having 96 wells (Nunk). Six-time reactions were repeated for each concentration. One handred and forty µl of an enzyme solution containing 0.2M Tris-HCl (pH8.6), 30 µl of a test solution and 30 µl of a substrate solution per well of the microplate were respectively pre-incubated at 37°C for 10 minutes. After completion of the incubation, the enzyme solution was mixed with the test sample and incubated for 10 minutes and then the substrate solution was added to perform an enzyme reaction. The absorbance of released P-nitroanilide (PNA) was measured at the wave length of 405 nm by means of a microplate reader (MTP-100; CORONA), thereby determining the substrate decomposition. […]

[2] = biological target: T2, human leukocyte elastase (HLE) (Homo sapiens, UniProt P08246); experiment: HLE inhibitory activity (synthetic substrate, pNA release, absorbance 405 nm); conditions: pH 8.6; HLE 5.63 nM, substrate 0.2625 mM; 37°C; read-out: IC₅₀ value HLE
T2 construct: the mixed solution was subjected to density gradient centrifugation, thereby obtaining neutrophiles; from tissue; host or cells: neutrophils from human vein blood (buffy coat)
T2 sequence (P08246 30-247 limits assumed): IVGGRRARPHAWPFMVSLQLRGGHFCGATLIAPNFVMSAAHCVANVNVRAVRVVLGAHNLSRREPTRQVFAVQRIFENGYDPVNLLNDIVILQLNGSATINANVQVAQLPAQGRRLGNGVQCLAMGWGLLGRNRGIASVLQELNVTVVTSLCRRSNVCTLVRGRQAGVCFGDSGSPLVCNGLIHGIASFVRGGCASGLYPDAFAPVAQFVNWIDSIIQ
Method: as §1
A buffy coat was obtained by subjecting human vein blood to centrifugation. To the buffy coat was added distilled water to make a hypotonic solution, thereby bursting erythrocytes. To the residual blood cell component was added a 33.4% of Conrey 400 solution/9% Ficoll solution (the ratio of the former solution to the latter solution is 10:24), and the mixed solution was subjected to density gradient centrifugation, thereby obtaining neutrophiles. The neutrophile fraction was washed with Hanks' buffer for three times and then cells were recovered and cryopreserved at -80°C until use. The cryopreserved-cells were thawed with warm water at 37°C and suspended in a 9-fold volume of lysis buffer containing 0.1M Tris-HCl (pH7.5), 1M MgCl₂ and 0.1% Brij 35. The suspended cells are destroyed by means of polotoron with ice-cooling. The cell suspension was subjected to centrifugation at 100,000 x g for 1 hour. After removing precipitates, 2-fold volume of a Tris-HCl buffer containing 5 mM Tris-HCl(pH 7.5), 1M NaCl and 1.1% Brij 35 was added to the supernatant, thereby obtaining a crude solution of an enzyme extract. The crude solution was subjected to aprotinine affinity column and extracted with an elution buffer containing […] of glycine-HCl (pH 3.3), 1M NaCl and 0.1% Brij 35, thereby obtaining an active fraction. The obtained active fraction was further subjected to MONO S-ion-exchange chromatography and eluted with 2M NaCl linear gradient. The obtained fraction was dialyzed against 25 mM Tris-HCl (pH8.6) and lyophilized, thereby obtained an enzyme sample.
(§2) A test compound was dissolved in DMSO (for fluorometry) and prepared various concentration of the solution. To each concentration was added 2-fold volume of 0.2M Tris-HCl (pH8.6), thereby obtaining a test solution. Synthetic substrate (Funakoshi, L-1335) was dissolved in DMSO and 2-volume of 0.2M Tris-HCl (pH8.6) was added thereto, thereby obtaining a substrate solution. The reaction was performed using a microplate having 96 wells (Nunk). Six-time reactions were repeated for each concentration. One handred and forty µl of an enzyme solution containing 0.2M Tris-HCl (pH8.6), 30 µl of a test solution and 30 µl of a substrate solution per well of the microplate were respectively pre-incubated at 37°C for 10 minutes. After completion of the incubation, the enzyme solution was mixed with the test sample and incubated for 10 minutes and then the substrate solution was added to perform an enzyme reaction. The absorbance of released P-nitroanilide (PNA) was measured at the wave length of 405 nm by means of a microplate reader (MTP-100; CORONA), thereby determining the substrate decomposition. The rate of the substrate decomposition was shown as an average value of 6 repeated reactions. The inhibitory concentration of a test compound relative to the amount of the substrate decomposition in the reaction mixture without a test compound was regarded as an IC₅₀ value. The final concentration of HLE and a synthesized substrate in the reaction mixture were 5.63 nM and 0.2625 mM, respectively.

human cathepsin G (HCG) = biological target: T3, human cathepsin G (HCG) (Homo sapiens, UniProt P08311); experiment: HCG inhibitory activity (synthetic substrate, pNA release); conditions: pH 7.5; HCG 50 nM, substrate 0.5 mM; read-out: IC₅₀ value HCG
T3 construct: purchased Cosmo Bio Inc
T3 sequence (P08311 21-244): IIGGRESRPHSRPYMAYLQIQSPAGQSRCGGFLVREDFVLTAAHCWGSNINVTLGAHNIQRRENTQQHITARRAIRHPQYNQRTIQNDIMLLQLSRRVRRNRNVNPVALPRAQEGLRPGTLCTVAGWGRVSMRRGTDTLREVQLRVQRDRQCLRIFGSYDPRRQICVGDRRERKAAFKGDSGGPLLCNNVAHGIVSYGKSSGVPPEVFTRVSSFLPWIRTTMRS
Method: as §1, §2
a) Enzyme obtaining route HCG was obtained from Cosmo Bio Inc.
The same method as in the measurement of HLE inhibitory activity was used except that a buffer solution (pH 7.5) was used. The final concentration of HCG and synthetic substrate (Funakoshi, L-1010) in a reaction mixture were 50 nM and 0.5 mM, respectively.

[3] = biological target: T4, bovine pancreatic α-chmotrypsin (CYT) (Bos taurus, UniProt P00766); experiment: CYT inhibitory activity (synthetic substrate, pNA release); conditions: pH 8.0; CYT 3.4 nM, substrate 0.273 mM; read-out: IC₅₀ value CYT
T4 construct: bovine pancreatic α-chmotrypsin (CYT); purchased Sigma Co., Ltd
Method: as §1, §2
a) Enzyme obtaining route CYT was obtained from Sigma Co., Ltd.
Substantially the same method as used in the measurement of the HLE inhibitory activity was used except that a buffer solution (pH 8.0) was used. The final concentration of CYT and synthetic substrate (Funakoshi, L-1010) in a reaction mixture were 3.4 nM and 0.273 mM, respectively.

IC50 [1]: > 12500 nM
IC50 [2]: 70 nM
IC50 (human cathepsin G (HCG)): > 12500 nM
IC50 [3]: 1400 nM
SMILES: Cc1cccc2nc([C@@H](NC(=O)OCC(c3ccccc3)c3ccccc3)C(C)C)oc(=O)c12 [Compound 1, 2-[1(S)-[(2,2-diphenylethoxy-carbonyl)amino]-2-methylpropyl]-5-methyl-4H-3,1-benzoxazin-4-one]
